PMC9611977 (Toxins, 2022)
Bridge positions count the residues as written; N and C are the ends. Ends that are not written are not given here.

Assays:
muscle α1β1δε nAChR = system: muscle α1β1δε nAChR; parameters: method as in PMID 16571968; conditions: read-out: EC50 of ACh for α1β1δε; cited from earlier work
rat ASIC3 = target: T1, rat ASIC3 (Rattus norvegicus, UniProt O35240); test: two-electrode voltage clamp on rASIC3 expressed in X. laevis oocytes; type: cell-based
T1 construct: expressed in transfected cells; host or cells: Xenopus laevis oocytes (cRNA injection)
T1 sequence (O35240 1-533): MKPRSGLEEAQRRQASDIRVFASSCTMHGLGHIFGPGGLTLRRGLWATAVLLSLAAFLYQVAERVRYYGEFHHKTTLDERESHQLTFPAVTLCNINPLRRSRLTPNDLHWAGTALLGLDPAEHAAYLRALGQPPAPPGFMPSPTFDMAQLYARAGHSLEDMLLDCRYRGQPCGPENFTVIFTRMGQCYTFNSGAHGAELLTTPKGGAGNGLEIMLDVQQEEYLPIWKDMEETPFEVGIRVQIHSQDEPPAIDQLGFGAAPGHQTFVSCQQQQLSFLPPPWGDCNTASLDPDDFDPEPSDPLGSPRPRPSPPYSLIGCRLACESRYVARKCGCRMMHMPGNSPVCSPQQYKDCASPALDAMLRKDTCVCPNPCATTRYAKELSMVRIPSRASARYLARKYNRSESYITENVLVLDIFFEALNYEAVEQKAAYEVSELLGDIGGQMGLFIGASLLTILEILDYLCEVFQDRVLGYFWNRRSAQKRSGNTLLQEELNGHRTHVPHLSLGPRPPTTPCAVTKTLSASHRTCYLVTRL
Protocol: (§1) Rat ASIC1a and ASIC3 channels were expressed in X. laevis oocytes after injection of 2.5–10 ng of cRNA, as previously described. After injection oocytes were kept for 2–3 days at 19 °C and then up to 5 days at the temperature of 15–16 °C in sterile ND96 medium (96 mM NaCl, 2 mM KCl, 1.8 mM CaCl2, 1 mM MgCl2, 5 mM HEPES titrated to pH 7.4 with NaOH supplemented with 50 μg/mL of gentamycin). Two-electrode voltage clamp recordings were performed using GeneClamp 500 amplifier (Axon Instruments, Burlingame, CA, USA). The data were filtered at 50 Hz and digitized at 1000 Hz by an AD converter L780 (LCard, Moscow, Russia) using in-house software (Moscow). The solutions were applied to a cell chamber (volume 50 μL). The laminar flow of an external solution of ND96 (pH 7.4) was used at a rate of 1 mL/min. ASIC1a and ASIC3 were activated by a short (1 s) application of a solution with a pH 5.5 (10 mM MES) using a fast application system. Peptides were applied 15 s before the activation pulse in a solution containing 0.1% BSA. A value of currents inhibition was calculated as the ratio of the peak current amplitude, when the peptide was applied to the average amplitude of the control peak currents before and after the peptide application and expressed as a percentage. To construct the concentration-response curves, a logistic equation was the following: y = ((1 − A)/(1 + ([C]/IC50)^nH)) + A; where y is the relative value of current inhibition; C is the peptide concentration; IC50 is the half maximal inhibitory concentration; nH is the Hill coefficient; A is an amplitude of maximum inhibition (% of control).

rat ASIC1a = test: two-electrode voltage clamp on rASIC1a expressed in X. laevis oocytes; type: cell-based; conditions: maximal applied concentration 100 μM; pH drop 7.4 to 5.5
Protocol: as §1, with “To construct the concentration-response curves, a logistic equation was the following: y = ((1 − A)/(1 + ([C]/IC50)^nH)) + A; where y is the relative value of current inhibition; C is the peptide concentration; IC50 is the half maximal inhibitory concentration; nH is the Hill coefficient; A is an amplitude of maximum inhibition (% of control).” left out

| Molecule | EC50 (muscle α1β1δε nAChR) | IC50 (rat ASIC3) | maximal inhibitory effect on rASIC3 acid-induced current (rat ASIC3; 100 μM peptide, pH drop 7.4 to 5.5) | Hill coefficient nH, rASIC3 inhibition (rat ASIC3; logistic fit, n = 5) | Iminimal, rASIC3 concentration-response fit (rat ASIC3; logistic fit, n = 5, amplitude of maximum inhibition (% of control)) | inhibition of rASIC1a current (rat ASIC1a) |
| --- | --- | --- | --- | --- | --- | --- |
| CC(=O)OCC[N+](C)(C)C [ACh, acetylcholine] | ~5 µM | – | – | – | – | – |
| GTPCKCLGYTGVYWFMITRCPNGHGYNLSCPYFLGVCCVKK (disulfide 4-37, 6-30, 20-38) [Hmg 1b-5] | – | 13.8 ± 0.6 µM | about 78% | 1.22 ± 0.04 | 22.4 ± 1.3 | 17% |
